One assay has as its target T1, HSD17B13 (Homo sapiens, UniProt Q7Z5P4).
T1 construct: Human lung cancer cell lines with high (H441) or low (A549) expression of HSD17B13, as confirmed by western blot; host or cells: H441 human lung cancer cell line
T1 sequence (Q7Z5P4 20-300): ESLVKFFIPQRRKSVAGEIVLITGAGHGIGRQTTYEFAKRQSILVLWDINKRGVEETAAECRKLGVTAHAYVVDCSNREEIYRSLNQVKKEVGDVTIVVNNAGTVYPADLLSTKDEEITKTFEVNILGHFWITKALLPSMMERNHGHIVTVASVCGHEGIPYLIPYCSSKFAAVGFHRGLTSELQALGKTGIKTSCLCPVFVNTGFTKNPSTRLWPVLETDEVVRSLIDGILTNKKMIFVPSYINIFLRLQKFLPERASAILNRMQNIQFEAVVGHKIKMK
Put plainly: HSD17B13 enzymatic activity in H441 cells (estradiol conversion to estrone, rapid fire mass spectrometry). The assay is classed as cell-based. To be noted: H441 (high HSD17B13), inhibitor 0.3 uM, 1 uM, 3 uM, 24 hours; effect only in H441, not in A549 (low HSD17B13) (FIG. 10). As for the experimental part: (§1) Human lung cancer cell lines with high (H441) or low (A549) expression of HSD17B13, as confirmed by western blot, were acquired from ATCC and maintained according to manufacturer's instructions. Cells were seeded at a confluency of 2e5 cells/well (A549) or 4e5 cells/well (H441) in a 6-well format. Once cells were 70% confluent, media was removed and replenished with starvation media for 24 hours. Afterward starvation media was removed and replenished with treatment media for 24 hours. Compound 348 and Compound 812 were used as HSD17B13 inhibitors. For gene expression analysis, treatment media consisted of +/−TGFB1 (10 ng/mL) and +/−HSD17B13 inhibitor (3 uM). For HSD17B13 enzymatic activity, treatment media consisted of +/−d2-Estradiol (Cayman Chemicals) and +/−HSD17B13 inhibitor (0.3 uM, 1 uM, 3 uM); supernatants were collected to measure estradiol conversion to estrone by rapid fire mass spectrometry.

The test system of another assay is H441 cells. The experiment in a line: Collagen / COL1A1 mRNA in H441 cells. Type of assay: cell-based, human. The conditions noted are these: H441 (high HSD17B13), +/-TGFB1 10 ng/mL, inhibitor 3 uM, 24 hours; effect only in H441, not in A549 (low HSD17B13) (FIG. 11). As for the experimental part:
as §1

In the case of `COc1cc(C(=O)O)ccc1NS(=O)(=O)c1csc(-c2ccc(C3CCC(C(F)(F)F)CC3)cc2)n1` (centres unmarked) [Compound 348], the “enzymatic activity (d2-estradiol conversion to estrone)” value on HSD17B13 is recorded as “decreased”. Further, in the assay on H441 cells, the “COL1A1 (Collagen)” value is recorded as “decreased”.

The values are drawn from patent publication US20250120952A1, “17-Beta-Hydroxysteroid Dehydrogenase Type 13 Inhibitors And Methods Of Use Thereof” (ENANTA PHARMACEUTICALS, INC., priority 2023, published 2025).
